{"source": "paper PMC8508660", "about": "(2021)", "key": {"[1]": {"tested_on": "22HT (DNA, G4) AGGGTTAGGGTTAGGGTTAGGG", "experiment": "CD melting, 290 nm", "details": "100 mM K+; 10 mM cacodylate pH 7.2; 2 µM DNA, 3 equiv. (6 µM) ligand; derived from two Tm (±0.5)"}, "[2]": {"tested_on": "TBA (DNA, aptamer) GGTTGGTGTGGTTGG", "experiment": "CD melting, 295 nm", "details": "100 mM K+; 10 mM cacodylate pH 7.2; 2 µM DNA, 3 equiv. (6 µM) ligand; derived from two Tm (±0.5)"}, "[3]": {"tested_on": "c-MYC (DNA, G4) TGAGGGTGGGTAGGGTGGGTAA", "experiment": "CD melting, 265 nm", "details": "10 mM K+, 90 mM Li+; 10 mM cacodylate pH 7.2; 2 µM DNA, 3 equiv. (6 µM) ligand; derived from two Tm (±0.5)"}, "[4]": {"tested_on": "22HT (DNA, G4) AGGGTTAGGGTTAGGGTTAGGG", "experiment": "CD melting, 295 nm", "details": "100 mM Na+; 10 mM cacodylate pH 7.2; 2 µM DNA, 3 equiv. (6 µM) ligand; derived from two Tm (±0.5)"}}}
{"smiles": "COc1nc2c(N)ncnc2[n+]2ccccc12", "values": [{"measurement": "ΔTm", "setting": "[1]", "value": 0.7, "unit": "°C"}, {"measurement": "ΔTm", "setting": "[2]", "value": -0.4, "unit": "°C"}, {"measurement": "ΔTm", "setting": "[3]", "value": -0.2, "unit": "°C"}, {"measurement": "ΔTm", "setting": "[4]", "value": -0.2, "unit": "°C"}]}
